# Laboratory results as given in article PMC6501426 (Clinical Epigenetics, 2019).
# Tests used:
# Assay in all cases: Kinase panel (Cerep)
# Assay type in all cases: biochemical
# AurA/Aur2 kinase (h) = molecular target: T1, AurA/Aur2 kinase (h) (Homo sapiens, UniProt O14965); conditions: read-out: % inhibition at 10 µM by MC3353, AurA/Aur2 kinase (h), ATP 10 μM
# T1 construct: purchased Eurofins Cerep
# Protocol: (§1) The test compound, reference compound or water (control) were mixed with the enzyme (for the exact amount see table below) in the appropriate buffer. Thereafter, the reaction was initiated by adding the required amount of the appropriate substrate and of ATP, and the mixture is incubated at room temperature (variable reaction time, see table below). For control basal measurements, the enzyme was omitted from the reaction mixture. Following incubation, the reaction was stopped by adding 13 mM EDTA. After 5 min, the proper antibody labelled with europium chelate was added. After 60 more min, the fluorescence transfer was measured at λex=337 nm, λem=620 nm and λem=665 nm using a microplate reader (Envision, Perkin Elmer). The enzyme activity was determined by dividing the signal measured at 665 nm by that measured at 620 nm (ratio). The results are expressed as a percent inhibition of the control enzyme activity.
# CDC2/CDK1 (h) (cycB) = molecular target: T2, CDC2/CDK1 (h) (cycB) (Homo sapiens, UniProt P06493); conditions: read-out: % inhibition at 10 µM by MC3353, CDC2/CDK1 (h) (cycB), ATP 10 μM
# T2 construct: purchased Eurofins Cerep
# T2 sequence (P06493 whole entry): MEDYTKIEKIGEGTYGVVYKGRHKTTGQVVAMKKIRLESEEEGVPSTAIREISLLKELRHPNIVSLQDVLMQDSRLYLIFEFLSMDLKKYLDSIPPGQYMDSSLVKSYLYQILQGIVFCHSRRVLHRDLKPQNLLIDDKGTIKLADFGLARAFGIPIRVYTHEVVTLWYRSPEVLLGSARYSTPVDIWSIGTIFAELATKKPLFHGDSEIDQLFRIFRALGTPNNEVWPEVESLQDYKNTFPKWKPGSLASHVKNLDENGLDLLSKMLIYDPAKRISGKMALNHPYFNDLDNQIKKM
# T2 sequence (P14635 whole entry partner): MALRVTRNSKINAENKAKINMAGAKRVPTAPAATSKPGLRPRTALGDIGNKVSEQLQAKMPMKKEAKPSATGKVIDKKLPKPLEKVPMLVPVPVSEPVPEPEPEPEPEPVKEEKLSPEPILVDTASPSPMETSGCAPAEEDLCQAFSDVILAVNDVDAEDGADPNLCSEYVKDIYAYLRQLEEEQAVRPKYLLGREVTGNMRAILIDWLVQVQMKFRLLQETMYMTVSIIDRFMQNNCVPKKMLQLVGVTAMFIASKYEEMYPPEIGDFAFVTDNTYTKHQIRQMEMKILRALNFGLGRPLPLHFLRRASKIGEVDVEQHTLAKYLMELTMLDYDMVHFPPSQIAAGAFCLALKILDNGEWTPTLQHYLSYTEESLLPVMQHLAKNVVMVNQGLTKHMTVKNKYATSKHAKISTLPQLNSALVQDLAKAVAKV
# Protocol: as §1
# CHK2 (h) = molecular target: T3, CHK2 (h) (Homo sapiens, UniProt O96017); conditions: read-out: % inhibition at 10 µM by MC3353, CHK2 (h), ATP 30 μM
# T3 construct: purchased Eurofins Cerep
# Protocol: as §1
# CaMK2alpha (h) = molecular target: T4, CaMK2alpha (h) (Homo sapiens, UniProt Q9UQM7); conditions: read-out: % inhibition at 10 µM by MC3353, CaMK2alpha (h), ATP 10 μM
# T4 construct: purchased Eurofins Cerep
# Protocol: as §1
# ERK2 (h) (P42mapk) = molecular target: T5, ERK2 (h) (P42mapk) (Homo sapiens, UniProt P28482); conditions: read-out: % inhibition at 10 µM by MC3353, ERK2 (h) (P42mapk), ATP 10 μM
# T5 construct: purchased Eurofins Cerep
# Protocol: as §1
# FGFR2 kinase (h) = molecular target: T6, FGFR2 kinase (h) (Homo sapiens, UniProt P21802); conditions: read-out: % inhibition at 10 µM by MC3353, FGFR2 kinase (h), ATP 10 μM
# T6 construct: purchased Eurofins Cerep
# T6 sequence (P21802 22-821): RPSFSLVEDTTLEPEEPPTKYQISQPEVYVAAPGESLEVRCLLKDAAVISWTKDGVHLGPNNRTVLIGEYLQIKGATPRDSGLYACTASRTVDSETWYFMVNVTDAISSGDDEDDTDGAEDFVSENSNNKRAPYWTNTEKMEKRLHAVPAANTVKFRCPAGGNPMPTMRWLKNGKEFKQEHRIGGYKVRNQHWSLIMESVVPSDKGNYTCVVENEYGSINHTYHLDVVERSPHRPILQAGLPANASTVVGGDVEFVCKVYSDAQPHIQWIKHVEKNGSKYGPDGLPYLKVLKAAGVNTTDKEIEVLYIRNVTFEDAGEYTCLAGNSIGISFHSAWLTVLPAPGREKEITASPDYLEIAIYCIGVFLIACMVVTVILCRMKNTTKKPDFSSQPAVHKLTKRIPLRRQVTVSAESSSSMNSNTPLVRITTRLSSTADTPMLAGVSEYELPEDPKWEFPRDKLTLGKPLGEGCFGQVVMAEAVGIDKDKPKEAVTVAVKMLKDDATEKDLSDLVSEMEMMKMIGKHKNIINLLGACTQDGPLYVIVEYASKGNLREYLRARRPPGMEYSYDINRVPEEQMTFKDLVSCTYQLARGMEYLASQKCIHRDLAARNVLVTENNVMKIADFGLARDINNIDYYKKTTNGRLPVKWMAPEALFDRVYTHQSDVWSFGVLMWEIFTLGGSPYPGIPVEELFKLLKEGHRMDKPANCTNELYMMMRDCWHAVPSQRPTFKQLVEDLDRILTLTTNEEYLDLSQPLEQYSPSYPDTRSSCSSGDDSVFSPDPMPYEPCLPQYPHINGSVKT
# Protocol: as §1
# GSK3beta (h) = molecular target: T7, GSK3beta (h) (Homo sapiens, UniProt P49841); conditions: read-out: % inhibition at 10 µM by MC3353, GSK3beta (h), ATP 10 μM
# T7 construct: purchased Eurofins Cerep
# Protocol: as §1
# IKKalpha (h) = molecular target: T8, IKKalpha (h) (Homo sapiens, UniProt O15111); conditions: read-out: % inhibition at 10 µM by MC3353, IKKalpha (h), ATP 5 μM
# T8 construct: purchased Eurofins Cerep
# T8 sequence (O15111 whole entry): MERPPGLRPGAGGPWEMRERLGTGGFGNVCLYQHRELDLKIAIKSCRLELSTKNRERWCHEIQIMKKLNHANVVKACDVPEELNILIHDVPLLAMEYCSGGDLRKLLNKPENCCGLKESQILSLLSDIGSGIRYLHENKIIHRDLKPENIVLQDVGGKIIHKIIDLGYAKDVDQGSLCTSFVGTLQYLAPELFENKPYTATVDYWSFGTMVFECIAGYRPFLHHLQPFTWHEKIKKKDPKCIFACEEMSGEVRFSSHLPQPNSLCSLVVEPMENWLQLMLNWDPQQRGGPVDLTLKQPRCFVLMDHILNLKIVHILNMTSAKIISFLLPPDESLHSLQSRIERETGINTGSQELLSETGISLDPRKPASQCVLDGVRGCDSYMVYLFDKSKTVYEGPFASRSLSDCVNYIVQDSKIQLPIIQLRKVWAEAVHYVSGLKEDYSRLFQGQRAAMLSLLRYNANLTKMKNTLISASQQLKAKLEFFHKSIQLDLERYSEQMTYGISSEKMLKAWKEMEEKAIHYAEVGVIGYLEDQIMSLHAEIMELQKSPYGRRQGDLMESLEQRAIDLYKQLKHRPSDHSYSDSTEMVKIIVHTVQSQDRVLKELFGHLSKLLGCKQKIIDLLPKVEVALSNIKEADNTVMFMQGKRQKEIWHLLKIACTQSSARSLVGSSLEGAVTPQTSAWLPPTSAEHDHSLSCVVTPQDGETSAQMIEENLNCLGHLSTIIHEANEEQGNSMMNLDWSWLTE
# Protocol: as §1
# JNK1 (h) = molecular target: T9, JNK1 (h) (Homo sapiens, UniProt P45983); conditions: read-out: % inhibition at 10 µM by MC3353, JNK1 (h), ATP 10 μM
# T9 construct: purchased Eurofins Cerep
# T9 sequence (P45983 whole entry): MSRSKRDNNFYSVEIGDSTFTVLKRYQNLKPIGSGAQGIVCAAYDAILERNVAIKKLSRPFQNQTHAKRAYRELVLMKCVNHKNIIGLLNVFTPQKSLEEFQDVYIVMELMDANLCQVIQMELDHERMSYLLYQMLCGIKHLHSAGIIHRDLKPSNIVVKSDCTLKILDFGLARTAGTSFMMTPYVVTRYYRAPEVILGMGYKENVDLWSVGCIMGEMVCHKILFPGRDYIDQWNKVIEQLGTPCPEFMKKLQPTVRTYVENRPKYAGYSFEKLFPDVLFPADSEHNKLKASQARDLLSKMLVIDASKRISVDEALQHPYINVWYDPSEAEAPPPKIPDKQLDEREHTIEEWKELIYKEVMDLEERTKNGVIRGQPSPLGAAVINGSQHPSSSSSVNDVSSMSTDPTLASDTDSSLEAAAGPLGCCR
# Protocol: as §1
# Lck kinase (h) = molecular target: T10, Lck kinase (h) (Homo sapiens, UniProt P06239); conditions: read-out: % inhibition at 10 µM by MC3353, Lck kinase (h), ATP 10 μM
# T10 construct: purchased Eurofins Cerep
# Protocol: as §1
# NEK2 (h) = molecular target: T11, NEK2 (h) (Homo sapiens, UniProt P51955); conditions: read-out: % inhibition at 10 µM by MC3353, NEK2 (h), ATP 10 μM
# T11 construct: purchased Eurofins Cerep
# T11 sequence (P51955 whole entry): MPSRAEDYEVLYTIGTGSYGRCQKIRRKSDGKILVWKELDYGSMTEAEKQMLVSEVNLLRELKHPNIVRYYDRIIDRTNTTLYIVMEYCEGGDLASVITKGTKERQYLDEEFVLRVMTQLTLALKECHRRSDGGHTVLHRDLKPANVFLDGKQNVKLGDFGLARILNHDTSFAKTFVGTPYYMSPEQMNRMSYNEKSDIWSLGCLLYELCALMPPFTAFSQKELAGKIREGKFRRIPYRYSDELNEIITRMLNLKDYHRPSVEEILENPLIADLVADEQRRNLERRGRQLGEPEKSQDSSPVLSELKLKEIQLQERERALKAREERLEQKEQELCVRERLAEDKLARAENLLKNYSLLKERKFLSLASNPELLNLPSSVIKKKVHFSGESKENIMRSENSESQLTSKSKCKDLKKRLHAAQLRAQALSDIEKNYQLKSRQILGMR
# Protocol: as §1
# PAK2 (h) = molecular target: T12, PAK2 (h) (Homo sapiens, UniProt Q13177); conditions: read-out: % inhibition at 10 µM by MC3353, PAK2 (h), ATP 50 μM
# T12 construct: purchased Eurofins Cerep
# T12 sequence (Q13177 whole entry): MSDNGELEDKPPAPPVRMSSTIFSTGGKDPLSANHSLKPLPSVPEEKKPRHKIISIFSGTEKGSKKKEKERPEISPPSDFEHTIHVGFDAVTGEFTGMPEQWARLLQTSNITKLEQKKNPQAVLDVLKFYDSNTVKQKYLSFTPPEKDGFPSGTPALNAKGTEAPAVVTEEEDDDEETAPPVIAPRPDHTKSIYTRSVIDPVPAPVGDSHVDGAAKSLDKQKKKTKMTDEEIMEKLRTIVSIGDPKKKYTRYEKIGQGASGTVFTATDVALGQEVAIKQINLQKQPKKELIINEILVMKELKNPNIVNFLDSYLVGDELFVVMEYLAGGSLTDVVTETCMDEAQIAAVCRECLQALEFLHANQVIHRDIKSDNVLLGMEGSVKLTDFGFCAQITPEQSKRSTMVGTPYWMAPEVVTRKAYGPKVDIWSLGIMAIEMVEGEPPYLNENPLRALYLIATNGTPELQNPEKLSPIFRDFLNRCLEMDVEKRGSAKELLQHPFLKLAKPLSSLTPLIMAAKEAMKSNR
# Protocol: as §1
# PDK1 (h) = molecular target: T13, PDK1 (h) (Homo sapiens, UniProt O15530); conditions: read-out: % inhibition at 10 µM by MC3353, PDK1 (h), ATP 10 μM
# T13 construct: purchased Eurofins Cerep
# Protocol: as §1
# PKA (h) = molecular target: T14, PKA (h) (Homo sapiens, UniProt P17612); conditions: read-out: % inhibition at 10 µM by MC3353, PKA (h), ATP 1 μM
# T14 construct: purchased Eurofins Cerep
# Protocol: as §1
# PKCbeta 2 (h) = molecular target: T15, PKCbeta 2 (h) (Homo sapiens, UniProt P05771); conditions: read-out: % inhibition at 10 µM by MC3353, PKCbeta 2 (h), ATP 30 μM
# T15 construct: purchased Eurofins Cerep
# Protocol: as §1
# Pim2 kinase (h) = molecular target: T16, Pim2 kinase (h) (Homo sapiens, UniProt Q9P1W9); conditions: read-out: % inhibition at 10 µM by MC3353, Pim2 kinase (h), ATP 3 μM
# T16 construct: purchased Eurofins Cerep
# Protocol: as §1
# RAF-1 kinase (h) = molecular target: T17, RAF-1 kinase (h) (Homo sapiens, UniProt P04049); conditions: read-out: % inhibition at 10 µM by MC3353, RAF-1 kinase (h), ATP 10 μM
# T17 construct: purchased Eurofins Cerep
# Protocol: as §1
# ROCK1 (h) = molecular target: T18, ROCK1 (h) (Homo sapiens, UniProt Q13464); conditions: read-out: % inhibition at 10 µM by MC3353, ROCK1 (h), ATP 1 μM
# T18 construct: purchased Eurofins Cerep
# Protocol: as §1
# SGK1 (h) = molecular target: T19, SGK1 (h) (Homo sapiens, UniProt O00141); conditions: read-out: % inhibition at 10 µM by MC3353, SGK1 (h), ATP 10 μM
# T19 construct: purchased Eurofins Cerep
# Protocol: as §1
# SIK (h) = molecular target: T20, SIK (h) (Homo sapiens, UniProt P57059); conditions: read-out: % inhibition at 10 µM by MC3353, SIK (h), ATP 30 μM
# T20 construct: purchased Eurofins Cerep
# T20 sequence (P57059 whole entry): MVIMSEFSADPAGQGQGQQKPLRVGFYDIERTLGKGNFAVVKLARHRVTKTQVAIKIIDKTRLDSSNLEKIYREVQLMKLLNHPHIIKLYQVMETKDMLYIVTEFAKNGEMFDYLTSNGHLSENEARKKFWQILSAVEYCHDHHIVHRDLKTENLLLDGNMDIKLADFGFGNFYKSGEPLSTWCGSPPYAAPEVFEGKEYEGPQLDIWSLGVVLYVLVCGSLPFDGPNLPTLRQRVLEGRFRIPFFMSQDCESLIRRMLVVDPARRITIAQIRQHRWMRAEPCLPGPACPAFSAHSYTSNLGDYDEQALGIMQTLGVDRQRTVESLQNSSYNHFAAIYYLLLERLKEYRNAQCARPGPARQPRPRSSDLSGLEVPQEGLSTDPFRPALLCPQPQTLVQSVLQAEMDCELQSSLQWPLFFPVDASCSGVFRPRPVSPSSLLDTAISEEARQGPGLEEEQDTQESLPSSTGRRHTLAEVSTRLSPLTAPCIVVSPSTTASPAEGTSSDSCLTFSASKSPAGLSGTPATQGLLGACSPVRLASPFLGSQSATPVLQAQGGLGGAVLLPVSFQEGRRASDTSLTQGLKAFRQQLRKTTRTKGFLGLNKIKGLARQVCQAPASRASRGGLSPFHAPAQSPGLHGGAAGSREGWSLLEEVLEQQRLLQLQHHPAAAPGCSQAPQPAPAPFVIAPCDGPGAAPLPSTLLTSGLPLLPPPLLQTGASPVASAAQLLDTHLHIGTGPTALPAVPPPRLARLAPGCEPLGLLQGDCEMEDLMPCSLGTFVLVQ
# Protocol: as §1
# Src kinase (h) = molecular target: T21, Src kinase (h) (Homo sapiens, UniProt P12931); conditions: read-out: % inhibition at 10 µM by MC3353, Src kinase (h), ATP 5 μM
# T21 construct: purchased Eurofins Cerep
# Protocol: as §1
# TRKA (h) = molecular target: T22, TRKA (h) (Homo sapiens, UniProt P04629); conditions: read-out: % inhibition at 10 µM by MC3353, TRKA (h), ATP 100 μM
# T22 construct: purchased Eurofins Cerep
# Protocol: as §1
# p38alpha kinase (h) = molecular target: T23, p38alpha kinase (h) (Homo sapiens, UniProt Q16539); conditions: read-out: % inhibition at 10 µM by MC3353, p38alpha kinase (h), ATP 100 μM
# T23 construct: purchased Eurofins Cerep
# T23 sequence (Q16539 whole entry): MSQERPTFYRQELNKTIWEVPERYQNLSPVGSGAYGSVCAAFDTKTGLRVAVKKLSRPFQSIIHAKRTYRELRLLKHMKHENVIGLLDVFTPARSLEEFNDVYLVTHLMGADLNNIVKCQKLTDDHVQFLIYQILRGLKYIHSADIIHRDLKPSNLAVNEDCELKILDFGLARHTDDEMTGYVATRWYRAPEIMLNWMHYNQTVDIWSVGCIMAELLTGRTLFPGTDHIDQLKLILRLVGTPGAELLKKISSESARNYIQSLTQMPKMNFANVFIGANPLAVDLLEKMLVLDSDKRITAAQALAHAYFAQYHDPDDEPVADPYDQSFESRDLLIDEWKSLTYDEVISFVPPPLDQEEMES
# Protocol: as §1
structure (smiles),measurement,setting,value
"O=C(Nc1ccc(NC(=O)c2ccc(Nc3ccnc4ccccc34)cc2)cc1)OCc1ccccc1 [MC3353, Benzyl (4-(4-(quinolin-4-ylamino)benzamido)phenyl)carbamate]",inhibition at 10 µM,AurA/Aur2 kinase (h),4%
same,inhibition at 10 µM,CDC2/CDK1 (h) (cycB),-25%
same,inhibition at 10 µM,CHK2 (h),-30%
same,inhibition at 10 µM,CaMK2alpha (h),-22%
same,inhibition at 10 µM,ERK2 (h) (P42mapk),-21%
same,inhibition at 10 µM,FGFR2 kinase (h),19%
same,inhibition at 10 µM,GSK3beta (h),-29%
same,inhibition at 10 µM,IKKalpha (h),18%
same,inhibition at 10 µM,JNK1 (h),-32%
same,inhibition at 10 µM,Lck kinase (h),4%
same,inhibition at 10 µM,NEK2 (h),-9%
same,inhibition at 10 µM,PAK2 (h),-135%
same,inhibition at 10 µM,PDK1 (h),-149%
same,inhibition at 10 µM,PKA (h),27%
same,inhibition at 10 µM,PKCbeta 2 (h),11%
same,inhibition at 10 µM,Pim2 kinase (h),20%
same,inhibition at 10 µM,RAF-1 kinase (h),60%
same,inhibition at 10 µM,ROCK1 (h),-51%
same,inhibition at 10 µM,SGK1 (h),29%
same,inhibition at 10 µM,SIK (h),33%
same,inhibition at 10 µM,Src kinase (h),57%
same,inhibition at 10 µM,TRKA (h),67%
same,inhibition at 10 µM,p38alpha kinase (h),-58%
